How the values were obtained:
Format in all cases: cell-based, rat
[1] = test system: cardiac explants; assay: Morphology of explant cultures after 21 days with TGF-β inhibitors; settings: 21 days in culture
[2] = test system: cardiac stem cells; assay: Differentiation potential: cardiac troponin T (TnT) immunocytochemistry; settings: 7 days in cardiac differentiation medium with 2 μmol/L Mocetinostat
Method: The effects of TGF-β inhibition on the differentiation potential of cardiac stem cells was examined as follows. Cardiac stem cells were isolated from heart tissue of CHF and sham animals as described in Example 1 above. Cells were subsequently cultured in cardiac differentiation medium (EMD Millipore) supplemented with 2 μmol/L Mocetinostat (SelleckChem) in the presence or absence of TGF-β inhibitors SB431542 and SIS3 for 7 days. Expression of cardiac troponin T (TnT) was evaluated by immunocytochemistry. TnT is an accepted marker for cardiac differentiation. Cells were fixed/permeabilized with a 1:1 acetone:ethanol mixture, blocked with 3% BSA in PBS, and labeled with mouse anti-TnT primary antibody (Abcam). Specific staining was visualized using anti-mouse secondary antibodies conjugated with Alexa 568 (Molecular Probes). Nuclei were stained with 4′,6-diamidino-2-phenylindole (Invitrogen). TnT-positive cells were quantified in 5 random microscopic fields. The percentage of TnT-positive cells was calculated as the number of positively stained cells normalized to the total number of cells.

[3] = test system: cardiac stem cells; assay: RNA expression analysis (real-time RT-PCR) of EMT and pluripotency markers after 7 days with TGF-β inhibitors
Method: Total RNA was extracted from the cardiac stem cells using PureLink RNA Mini Kit (Life Technologies) according to the manufacturer's protocol. RNA was then quantified with a Quanti-iT RiboGreen RNA Assay Kit and assessed using a BioTek Synergy HT Microplate Reader (excitation/emission 480/520 nm). Total RNA (200 ng) was reverse-transcribed with a QuantiTect Reverse Transcription kit (Qiagen). Real-time RT-PCR was conducted using Rower SYBR Green Master Mix (Applied Biosystems) on a StepOnePlus Real-time PCR System (Applied Biosystems). Specific primers were synthesized by Life Technologies. CYPA was used as a reference gene. Data analysis was performed on StepOne software version 2.1 (Applied Biosystems) using the comparative Ct (AACt) quantitation method.
To determine the effect of inhibition of TGF-β signaling in cardiac stem cells on markers of epithelial/endothelial to mesenchymal transition (i.e., EMT markers) and pluripotency markers the following experiments were performed. Cardiac stem cells were isolated from sham and CHF heart tissue as described in Example 1 above. Cardiac stem cells from CHF and sham animals were treated in culture with TGF-β inhibitors SB431542 or SIS3 for 7 days and subsequently assessed for EMT and pluripotency expression by RNA expression analysis and western blotting using the techniques described above in Example 1.

[4] = test system: explant-derived cardiac stem cells; assay: Flow cytometry of explant outgrowths cultured 21 days with TGF-β inhibitors
Method: Isolated cardiac stem cells were further characterized using flow cytometry as follows. Cells were fixed in 70% ethanol and labeled with the following antibodies: c-Kit (Santa-Cruz Biotechnology), vimentin and smooth muscle actin (Abcam), and CD90 (BD Biosciences). Cells were treated with secondary antibodies corresponding to either anti-rabbit or anti-mouse IgG conjugated with Alexa 488, phycoerythrin (PE), or PE-Cy5.5 (Life Technologies). Direct labeling with FITC-conjugated CD34 and PE-Cy5.5 conjugated CD45 (BD Biosciences) antibodies was used to exclude bone marrow and hematopoietic cells. Freshly isolated bone marrow cells were used as positive controls for CD34 and CD45 labeling. For a negative control, cells were labeled with isotype IgG instead of primary antibody. Cell events were detected using a FACS Calibur flow cytometer equipped with an argon laser (BD Biosciences). Data were analyzed using CellQuest software (BD Biosciences).
The effects of TGF-β inhibition on the yield of explant-derived cardiac stem cells were examined as follows. Cardiac stem cells were isolated from heart tissue of CHF and sham animals as described in Example 1 above. Cells were subsequently cultured in cardiac differentiation medium (EMD Millipore) supplemented with 2 μmol/L Mocetinostat (SelleckChem) in the presence or absence of TGF-β inhibitors SB431542 and SIS3 for 21 days. Explant outgrowths were analyzed by flow cytometry as described above in Example 1.

| Structure (SMILES) | number of small, round phase-bright cell clusters compared with controls [1] | TnT+ cells ([2]; CHF cardiac stem cells) [%] | TnT+ cells ([2]; sham cardiac stem cells) [%] | upregulated E-cadherin expression ([3]; CHF cardiac stem cells) | upregulated Nanog expression ([3]; CHF cardiac stem cells) | increased Sox2 expression ([3]; sham cardiac stem cells) [fold] | reduced SMA gene expression ([3]; sham cardiac stem cells) [fold] | upregulated E-cadherin expression ([3]; sham cardiac stem cells) [fold] | upregulated Nanog expression ([3]; sham cardiac stem cells) [fold] | decreased percentage of vimentin-positive fibroblasts ([4]; CHF CSCs) [%] | increase in the number of c-Kit+ cells ([4]; CHF CSCs) | reduction of the number of CD90-positive cells ([4]; CHF CSCs) [%] | reduction of the number of SMA-positive myofibroblasts ([4]; CHF CSCs) [%] | decreased percentage of vimentin-positive fibroblasts ([4]; sham CSCs) [%] | increase in the number of c-Kit+ cells ([4]; sham CSCs) [%] | reduction of the number of CD90-positive cells ([4]; sham CSCs) [%] | increased Sox2 expression ([3]; CHF cardiac stem cells) [fold] |
| --- | --- | --- | --- | --- | --- | --- | --- | --- | --- | --- | --- | --- | --- | --- | --- | --- | --- |
| COc1cc2c(cc1OC)CN(C(=O)/C=C/c1c(-c3ccccc3)n(C)c3ncccc13)CC2 [SIS3] | higher number | 19.6 | 36.2 | no effect | no effect | 4 | 5 | 5 | 2.2 | 34 | no effect | 53 | 62.8 | 35 | 52 | 52.4 | – |
| NC(=O)c1ccc(-c2nc(-c3ccc4c(c3)OCO4)c(-c3ccccn3)[nH]2)cc1 [SB431542] | higher number | 15.4 | 24.4 | 3.6 fold | 2.4 fold | 5.2 | 2 | 6.2 | 2 | 42 | 75% | – | 63.3 | 55 | 36.6 | – | 4.1 |
